Experimental findings from patent US7919577B2, “Adrenocorticotropic hormone analogs and related methods” (Colorado Seminary, priority 2004, dated 2011) are described below.

No end group written: not given here.

For the experiment, the system named is dexamethasone-suppressed male FVB/N mice. Kind of experiment: in vivo Serum Corticosteroid Induction Assay (Example 1). On the set-up: species or system mouse. The settings on record: relative to unmodified mACTH(1-24); 1 μg subcutaneously to dexamethasone-suppressed mice; blood one hour later. The method, then: An in vivo Serum Corticosteroid Induction Assay measures the level of corticosteroid or corticosterone in the blood stream of a subject. More specifically, the in vivo Serum Corticosteroid Induction Assay can include the following steps: first, an agent to suppress endogenous ACTH production was administered to a mouse subject, such as an intraperitoneal injection of dexamethasone; second, after waiting a suitable period of time for suppression of endogenous ACTH production (e.g., 1.5-2.0 hours), a test compound can be administered to the mouse by a suitable method, such as intraperitoneal or subcutaneous injection; and third, after waiting a suitable period of time (e.g., 1 hour) for action of the injected test compound, a blood sample can be taken from the subject and the level of serum corticosterone can be determined by a suitable method, such as a competitive radioimmunoassay using ^125I RIA kit (ICN, Costa Mesa, Calif.). Example 1 describes a murine in vivo Serum Corticosteroid Induction Assay in detail.
The corticosteroid or corticosterone secretion induced in vivo by an ACTH analog compound was compared to the level of corticosteroid secretion produced by an unmodified ACTH compound by measuring blood serum corticosteroid after administering either the ACTH or ACTH analog as test compounds. […] ACTH analog compositions with decreased function were identified by measuring corticosterone levels using standard radioimmunoassay (RIA) analysis on blood samples collected one hour after administering the mACTH(1-24) or ACTH analog compound to dexamethasone-suppressed mice. In FIG. 1, the potency of various ACTH analog peptides is expressed as percent induction of corticosterone, with mouse ACTH being 100%. […] The percent of corticosterone induction 12 of ACTH analog Compounds in Samples 2-10 are shown as a percentage of the concentration of serum corticosterone 20 measured for unmodified mACTH(1-24) in the in vivo Serum Corticosteroid Adrenal Induction Assay. The structural modifications and measured percentage reduction in serum measured for Samples 2-10 in FIG. 1 are shown in Table 3 below.
The in vivo Serum Corticosteroid Induction Assay was performed according the following method. First, two to three month-old male FVB/N mice from our colony, five per group, were injected intraperitoneally with dexamethasone (0.4 mg/0.1 ml PBS per mouse; Sigma, St. Louis, Mo.) to suppress their endogenous ACTH production. See Hajos, G T et al., “Studies of the potency of polypeptides with ACTH action by a new method based on continuous measurement of plasma corticosterone,” Steroids Lipids Res 3:225-228 (1972), Costa, J L, et al., “Mutational analysis of evolutionarily conserved ACTH residues,” Gen Comp Endocrinol, 136:12-16 (2004), and Karpac, J, et al., “Development, Maintenance, and Function of the Adrenal Gland in Early Postnatal Pro-opiomelanocortin Null Mutant Mice,” Endocrinology (2005), published online ahead of print Feb. 24, 2005, all of which are incorporated herein by reference.
Second, ninety to one hundred twenty minutes later, the dexamethasone-suppressed mice were injected subcutaneously between the shoulder blades with either unmodified mACTH(1-24) or one of several ACTH analog peptide compounds (1 μg/0.1 mL PBS/0.5% BSA), or with vehicle alone (control) (0.1 mL PBS/0.5% BSA). The following ACTH analog peptide compounds were administered to separate mice: 1: murine ACTH1-24; 2: V26F,E30K; 3: P19W,K21E,Y23R; 4: E30K,P36R; 5: ALA19-24; 6: V26F,P36R; 7: P19W, K21E; 8: P19W,K21A,delY23; 9: P19W,K21A; 10: KRRP16-19RAAW (AT814) (SEQ ID NO:20).
Third, one hour later, blood was collected within less than 1 minute from a small incision in the tail, and serum was flash-frozen and stored at −80° C. until assayed. Serum corticosterone was determined by competitive radioimmunoassay (^125I RIA kit; ICN, Costa Mesa, Calif.) according to the manufacturer's recommendations. One microliter of serum was used per assay sample. […]

Turning to “N-Ser^1-Tyr-Ser-Met-Glu^5-His-Phe-Arg-Trp-Gly^10-Lys-Pro-Val-Gly-Lys^15-Arg-Ala-Ala-Trp-Val^20-Lys-Val-Tyr-Pro-Ac (SYSMEHFRWGKPVGKRAAWVKVYP; not fully specified; printed as N-Ser1-Tyr-Ser-Met-Glu5-His-Phe-Arg-Trp-Gly10-Lys-Pro-Val-Gly-Lys15-Arg-Ala-Ala-Trp-Val20-Lys-Val-Tyr-Pro-Ac) [AT814]”, the “Percent reduction in serum corticosteroid” value is 100%.
